# Molecular target: human PAD4 (hPAD4) (Homo sapiens, UniProt Q9UM07)
# Experiment: RFMS human PAD4 functional assay (rapid-fire mass spectrum)
# Format: biochemical
# Settings: 5 nM hPAD4 enzyme, 250 μM BAEE, 50 μM Calcium; 30 min preincubation, 90 min reaction at 37° C.
# In short: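 PAD4 (10 nM) preincubated 30 min with compound (top final 50 μM), then BAEE substrate added in pH 7.5 HEPES buffer with DTT, 50 μM calcium, TPEN; 90 min at 37° C. After TCA quench, citrulline derivatized with phenyl glyoxal (4 mM final, 30 min, 37° C) and quantified by RapidFire MS against internal standard.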
# human PAD4 (hPAD4), sequence (Q9UM07 whole entry): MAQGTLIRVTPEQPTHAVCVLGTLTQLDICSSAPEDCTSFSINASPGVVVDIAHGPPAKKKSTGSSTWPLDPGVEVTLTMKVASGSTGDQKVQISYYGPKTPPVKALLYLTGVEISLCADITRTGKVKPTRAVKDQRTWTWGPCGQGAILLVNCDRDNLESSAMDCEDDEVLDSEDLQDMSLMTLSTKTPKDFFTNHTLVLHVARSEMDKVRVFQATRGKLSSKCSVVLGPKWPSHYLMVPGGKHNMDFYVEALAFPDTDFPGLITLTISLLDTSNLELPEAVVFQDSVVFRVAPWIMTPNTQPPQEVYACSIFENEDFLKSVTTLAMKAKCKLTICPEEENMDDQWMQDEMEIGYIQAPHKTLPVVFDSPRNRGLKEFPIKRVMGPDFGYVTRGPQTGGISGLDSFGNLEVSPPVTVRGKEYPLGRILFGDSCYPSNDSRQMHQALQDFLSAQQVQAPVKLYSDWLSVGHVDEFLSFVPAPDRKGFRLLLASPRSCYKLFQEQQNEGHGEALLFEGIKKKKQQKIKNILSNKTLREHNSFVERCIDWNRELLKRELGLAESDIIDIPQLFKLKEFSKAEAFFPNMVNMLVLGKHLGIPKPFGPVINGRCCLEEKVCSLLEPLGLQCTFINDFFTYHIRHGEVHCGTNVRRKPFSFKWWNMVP
row,Compound,IC50
1,"COc1cc(C(=O)N2C[C@H](N)C[C@@H](F)C2)cc2nc(-c3cc4cccnc4n3CC3CC3)n(Cc3cnn(-c4cccn(C)c4=O)c3)c12 [Example 347, 3-[4-({5-[(3R,5R)-3-amino-5-fluoropiperidine-1-carbonyl]-2-[1-(cyclopropyimethyl)-1H-pyrrolo[2,3-b]pyridin-2-yl]-7-methoxy-1H-1,3-benzodiazol-1-yl}methyl)-1H-pyrazol-1-yl]-1-methyl-1,2-dihydropyridin-2-one]",97 nM
2,"COc1cc(C(=O)N2CC3CCC2[C@@H]3N)cc2nc(-c3cc4ccccc4n3CC3CC3)n(Cc3cnn(-c4ccccn4)c3)c12 (stereo partly drawn) [Example 348, (7R)-2-{2-[1-(cyclopropylmethyl)-1H-indol-2-yl]-7-methoxy-1-{[1-(pyridin-2-yl)-1H-pyrazol-4-yl]methyl}-1H-1,3-benzodiazoie-5-carbonyl}-2-azabicyclo[2.2.1]heptan-7-amine]",14 nM
3,"COc1cncc(-n2cc(Cn3c(-c4cc5ccccc5n4CC4CC4)nc4cc(C(=O)N5CC6CCC5[C@@H]6N)cc(OC)c43)cn2)c1 (stereo partly drawn) [Example 349, (7R)-2-{2-[1-(cyclopropylmethyl)-1H-indol-2-yl]-7-methoxy-1-{[1-(5-methoxypyridin-3-yl)-1H-pyrazol-4-yl]methyl}-1H-1,3-benzodiazole-5-carbonyl)-2-azabicyclo[2.2.1]heptan-7-amine]",15 nM
4,"COc1cc(C(=O)N2CC3CCC2[C@@H]3N)cc2nc(-c3cc4ccccc4n3CC3CC3)n(Cc3cnn(-c4ccc(C)nc4)c3)c12 (stereo partly drawn) [Example 350, (7R)-2-{2-[1-(cyclopropylmethyl)-1H-indol-2-yl]-7-methoxy-1-{[1-(6-methylpyridin-3-yl)-1H-pyrazol-4-yl]methyl}-1H-1,3-benzodiazole-5-carbonyl}-2-azabicyclo[2.2.1]heptan-7-amine]",16 nM
5,"COc1cc(C(=O)N2CC3CCC2[C@@H]3N)cc2nc(-c3cc4ccccc4n3CC3CC3)n(Cc3cnn(-c4cncc(C#N)c4)c3)c12 (stereo partly drawn) [Example 351, 5-[4-({5-[(7R)-7-amino~2-azabicyclo[2.2.1]heptane-2-carbonyl]-2-[1-(cyclopropylmethyl)-1H-indol-2-yl]-7-methoxy-1H-1,3-benzodiazol-1-yl}methyl)-1H-pyrazol-1-yl]pyridine-3-carbonitrile]",18 nM
6,"COc1cncc(-n2cc(Cn3c(-c4cc5cccnc5n4CC4CC4)nc4cc(C(=O)N5CC6CCC5[C@@H]6N)cc(OC)c43)cn2)c1 (stereo partly drawn) [Example 352, (7R)-2-{2-[1-(cyclopropylmethyl)-1H-pyrrolo[2,3-b]pyridin-2-yl]-7-methoxy-1-{[1-(5-methoxypyridin-3-yl)-1H-pyrazol-4-yl]methyl}-1H-1,3-benzodiazole-5-carbonyl}-2-azabicyclo[2.2.1]heptan-7-amine]",19 nM
7,"COc1cc(C(=O)N2CC3CCC2[C@@H]3N)cc2nc(-c3cc4cccnc4n3CC3CC3)n(Cc3cnn(-c4cccc(O)n4)c3)c12 (stereo partly drawn) [Example 353, 6-[4-({5-[(7R)-7-amino-2-azabicyclo[2.2.1]heptane-2-carbonyl]-2-[1-(cyclopropylmethyl)-1H-pyrrolo[2,3-b]pyridin-2-yl]-7-methoxy-1H-1,3-benzodiazol-1-yl}methyl)-1H-pyrazol-1-yl]pyridin-2-ol]",20 nM
8,"COc1ccc(-n2cc(Cn3c(-c4cc5ccccc5n4CC4CC4)nc4cc(C(=O)N5CC6CCC5[C@@H]6N)cc(OC)c43)cn2)cn1 (stereo partly drawn) [Example 354, (7R)-2-{2-[1-(cyclopropylmethyl)-1H-indol-2-yl]-7-methoxy-1-{[1-(6-methoxypyridin-3-yl)-1H pyrazol-4-yl]methyl}-1H-1,3-benzodiazole-5-carbonyl}-2-azabicyclo[2.2.1]heptan-7-amine]",22 nM
9,"COc1cc(C(=O)N2CC3CCC2[C@@H]3N)cc2nc(-c3cc4cccnc4n3CC3CC3)n(Cc3cnn(-c4cccc(C)n4)c3)c12 (stereo partly drawn) [Example 355, (7R)-2-{2-[1-(cyclopropylmethyl)-1H-pyrrolo[2,3-b]pyridin-2-yl]-7-methoxy-1-{[1-(6-methylpyridin-2-yl)-1H-pyrazol-4-yl]methyl}-1H-1,3-benzodiazole-5-carbonyl}-2-azabicyclo[2.2.1]heptan-7-amine]",22 nM
10,"COc1cc(C(=O)N2CC3CCC2[C@@H]3N)cc2nc(-c3cc4cccnc4n3CC3CC3)n(Cc3cnn(-c4cccc(C(F)(F)F)n4)c3)c12 (stereo partly drawn) [Example 356, (7R)-2-{2-[1-(cyclopropylmethyl)-1H-pyrrolo[2,3-b]pyridin-2-yl]-7-methoxy-1-({1-[6-(trifluoromethyl)pyridin-2-yl]-1H-pyrazol-4-yl}methyl)-1H-1,3-benzodiazole-5-carbonyl)-2-azabicyclo[2.2.1]heptan-7-amine]",23 nM
11,"COc1cc(C(=O)N2CC3CCC2[C@@H]3N)cc2nc(-c3cc4ccccc4n3CC3CC3)n(Cc3cnn(-c4cnc(O)c(F)c4)c3)c12 (stereo partly drawn) [Example 357, 5-[4-({5-[(7R)-7-amino-2-azabicyclo[2.2.1]heptane-2-carbonyl]-2-[1-(cyclopropylmethyl)-1H-indol-2-yl]-7-methoxy-1H-1,3-benzodiazol-1-yl}methyl)-1H-pyrazol-1-yl]-3-fluoropyridin-2-ol]",23 nM

# Results, then the molecule that gave them:
row,IC50,Compound
1,23 nM,"COc1cc(C(=O)N2CC3CCC2[C@@H]3N)cc2nc(-c3cc4ccccc4n3CC3CC3)n(Cc3cnn(-c4cnccn4)c3)c12 (stereo partly drawn) [Example 358, (7R)-2-{2-[1-(cyclopropylmethyl)-1H-mdol-2-yl]-7-methoxy-1-{[1-(pyrazin-2-yl)-1H-pyrazol-4-yl]methyl}-1H-1,3-benzodiazole-5-carbonyl}-2-azabicyclo[2.2.1]heptan-7-amine]"
2,23 nM,"COc1cc(C(=O)N2CC3CCC2[C@@H]3N)cc2nc(-c3cc4ccccc4n3CC3CC3)n(Cc3cnn(-c4cncc(F)c4)c3)c12 (stereo partly drawn) [Example 359, (7R)-2-{2-[1-(cyclopropylmethyl)-1H-indol-2-yl]-1-{[1-(5-fluoropyridin-3-yl)-1H-pyrazol-4-yl]methyl}-7-methoxy-1H-1,3-benzodiazole-5-carbonyl}-2-azabicyclo[2.2.1]heptan-7-amine]"
3,24 nM,"COc1cc(C(=O)N2CC3CCC2[C@@H]3N)cc2nc(-c3cc4cccnc4n3CC3CC3)n(Cc3cnn(-c4ccc(Cl)cn4)c3)c12 (stereo partly drawn) [Example 360, (7R)-2-(1-{[1-(5-chloropyridin-2-yl)-1H-pyrazol-4-yl]methyl}-2-[1-(cyclopropylmethyl)-1H-pyrrolo[2,3-b]pyridin-2-yl]-7-methoxy-1H-1,3-benzodiazole-5-carbonyl)-2-azabicyclo[2.2.1]heptan-7-amine]"
4,25 nM,"COc1cc(C(=O)N2CC3CCC2[C@@H]3N)cc2nc(-c3cc4ccccc4n3CC3CC3)n(Cc3cnn(-c4ccnc(N)c4)c3)c12 (stereo partly drawn) [Example 361, (7R)-2-(1-{[1-(2-aminopyridin-4-yl)-1H-pyrazol-4-yl]methyl}-2-[1-(cyclopropylmethyl)-1H-indol-2-yl]-7-methoxy-1H-1,3-benzodiazole-5-carbonyl)-2-azabicyclo[2.2.1]heptan-7-amine]"
5,25 nM,COc1cc(C(=O)N2CC3CCC2[C@@H]3N)cc2nc(-c3cc4ccccc4n3CC3CC3)n(Cc3cnn(-c4ccncc4)c3)c12 (stereo partly shown) [Example 362]
6,25 nM,"COc1cc(C(=O)N2C[C@H](N)C[C@@H](F)C2)cc2nc(-c3cc4cccnc4n3CC3CC3)n(Cc3cnn(-c4cccc(C)n4)c3)c12 [Example 363, (3R,5R)-1-{2-[1-(cyclopropylmethyl)-1H-pyrrolo[2,3-b]pyridin-2-yl]-7-methoxy-1-{[1-(6-methylpyridin-2-yl)-1H-pyrazol-4-yl]methyl}-1H-1,3-benzodiazole-5-carbonyl}-5-fluoropiperidin-3-amine]"
7,26 nM,"COC(=O)c1cccc(-n2cc(Cn3c(-c4cc5cccnc5n4CC4CC4)nc4cc(C(=O)N5C[C@H](N)C[C@@H](F)C5)cc(OC)c43)cn2)n1 [Example 364, methyl 6-[4-({5-[(3R,5R)-3-amino-5-fluoropipendine-1-carbonyl]-2-[1-(cyclopropylmethyl)-1H-pyrrolo[2,3-b]pyridin-2-yl]-7-methoxy-1H-1,3-benzodiazol-1-yl}methyl)-1H-pyrazol-1-yl]pyridine-2-carboxylate]"
8,27 nM,"COc1cccc(-n2cc(Cn3c(-c4cc5cccnc5n4CC4CC4)nc4cc(C(=O)N5CC6CCC5[C@@H]6N)cc(OC)c43)cn2)n1 (stereo partly drawn) [Example 365, (7R)-2-{2-[1-(cyclopropylmethyl)-1H-pyrrolo[2,3-b]pyridin-2-yl]-7-methoxy-1-{[1-(6-methoxypyridin-2-yl)-1H-pyrazol-4-yl]methyl}-1H-1,3-benzodiazole-5-carbonyl}-2-azabicyclo[2.2.1]heptan-7-amine]"
9,28 nM,"COc1cc(-n2cc(Cn3c(-c4cc5ccccc5n4CC4CC4)nc4cc(C(=O)N5CC6CCC5[C@@H]6N)cc(OC)c43)cn2)ccn1 (stereo partly drawn) [Example 366, (7R)-2-{2-[1-(cyclopropylmethyl)-1H-indol-2-yl]-7-methoxy-1-{[1-(2-methoxypyridin-4-yl)-1H-pyrazol-4-yl]methyl}-1H-1,3-benzodiazole-5-carbonyl}-2-azabicyclo[2.2.1]heptan-7-amine]"
10,29 nM,"COc1cc(C(=O)N2CC3CCC2[C@@H]3N)cc2nc(-c3cc4cccnc4n3CC3CC3)n(Cc3cnn(-c4ccccc4)c3)c12 (stereo partly drawn) [Example 367, (7R)-2-{2-[1-(cyclopropylmethyl)-1H-pyrrolo[2,3-b]pyridin-2-yl]-7-methoxy-1-[(1-phenyl-1H-pyrazol-4-yl)methyl]-1H-1,3-benzodiazole-5-carbonyl}-2-azabicyclo[2.2.1]heptan-7-amine]"
11,29 nM,"COc1cc(C(=O)N2CC3CCC2[C@@H]3N)cc2nc(-c3cc4ccccc4n3CC3CC3)n(Cc3cnn(-c4cccnc4)c3)c12 (stereo partly drawn) [Example 368, (7R)-2-{2-[1-(cyclopropylmethyl)-1H-indol-2-yl]-7-methoxy-1-{[1-(pyridin-3-yl)-1H-pyrazol-4-yl]methyl}-1H-1,3-benzodiazole-5-carbonyl}-2-azabicyclo[2.2.1]heptan-7-amine]"

# From patent US12692254B2, “Benzimidazole inhibitors of PAD enzymes” (BRISTOL-MYERS SQUIBB COMPANY, priority 2018, dated 2026)
